Publication PMC6458995, “MAP4K4 Inhibition Promotes Survival of Human Stem Cell-Derived Cardiomyocytes and Reduces Infarct Size In Vivo” (Cell Stem Cell, 2019)

Tests used:
Assay in all cases: Dundee kinase panel
Format in all cases: biochemical
Conditions in all cases: for remaining activity at 1 µM: read-out: residual activity
PKCa = target: T1, PKCa (Homo sapiens, UniProt P17252)
T1 construct: lines 1-140) and Reaction Biology
Protocol: (§1) Compounds were screened at 1 μM. For key hits, pIC50 values were then determined by HTRF as above. […] Stability in mouse and human liver microsomes was determined by Cyprotex.

TTBK2 = target: T2, TTBK2 (Homo sapiens, UniProt Q6IQ55)
T2 construct: lines 1-140) and Reaction Biology
T2 sequence (Q6IQ55 whole entry): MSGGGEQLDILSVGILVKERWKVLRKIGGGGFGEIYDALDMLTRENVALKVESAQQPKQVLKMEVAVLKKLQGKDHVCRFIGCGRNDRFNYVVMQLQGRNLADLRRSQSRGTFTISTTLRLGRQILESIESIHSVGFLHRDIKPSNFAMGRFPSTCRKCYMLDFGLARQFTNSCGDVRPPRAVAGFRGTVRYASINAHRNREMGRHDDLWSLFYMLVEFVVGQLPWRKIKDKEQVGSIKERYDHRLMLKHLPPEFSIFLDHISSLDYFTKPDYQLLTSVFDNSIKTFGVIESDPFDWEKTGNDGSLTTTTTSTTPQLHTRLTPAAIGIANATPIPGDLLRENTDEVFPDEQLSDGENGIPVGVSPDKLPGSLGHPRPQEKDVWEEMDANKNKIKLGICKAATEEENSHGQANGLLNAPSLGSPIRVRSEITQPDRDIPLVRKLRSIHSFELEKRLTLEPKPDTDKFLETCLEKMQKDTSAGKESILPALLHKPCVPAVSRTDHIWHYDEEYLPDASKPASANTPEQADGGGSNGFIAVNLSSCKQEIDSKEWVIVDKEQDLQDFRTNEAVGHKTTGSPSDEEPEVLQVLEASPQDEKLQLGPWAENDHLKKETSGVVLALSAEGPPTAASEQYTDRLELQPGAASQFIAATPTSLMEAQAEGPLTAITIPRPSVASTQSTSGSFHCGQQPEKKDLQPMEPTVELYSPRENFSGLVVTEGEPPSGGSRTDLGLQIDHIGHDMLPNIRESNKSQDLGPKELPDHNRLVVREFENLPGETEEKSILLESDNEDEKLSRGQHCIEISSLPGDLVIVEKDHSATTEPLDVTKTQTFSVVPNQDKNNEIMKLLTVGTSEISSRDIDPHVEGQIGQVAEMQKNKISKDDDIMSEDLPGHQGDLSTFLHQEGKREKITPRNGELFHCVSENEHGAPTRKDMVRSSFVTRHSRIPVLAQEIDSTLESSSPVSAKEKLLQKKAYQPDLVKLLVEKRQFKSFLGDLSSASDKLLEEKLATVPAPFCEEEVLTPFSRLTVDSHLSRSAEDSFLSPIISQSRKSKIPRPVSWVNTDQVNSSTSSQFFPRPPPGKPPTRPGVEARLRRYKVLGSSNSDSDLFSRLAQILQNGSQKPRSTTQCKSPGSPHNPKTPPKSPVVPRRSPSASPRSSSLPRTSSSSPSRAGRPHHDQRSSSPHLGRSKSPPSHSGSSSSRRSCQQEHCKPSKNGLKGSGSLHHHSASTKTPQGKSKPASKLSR
Protocol: as §1

JNK2 = target: T3, JNK2 (Homo sapiens, UniProt P45984)
T3 construct: lines 1-140) and Reaction Biology
T3 sequence (P45984 whole entry): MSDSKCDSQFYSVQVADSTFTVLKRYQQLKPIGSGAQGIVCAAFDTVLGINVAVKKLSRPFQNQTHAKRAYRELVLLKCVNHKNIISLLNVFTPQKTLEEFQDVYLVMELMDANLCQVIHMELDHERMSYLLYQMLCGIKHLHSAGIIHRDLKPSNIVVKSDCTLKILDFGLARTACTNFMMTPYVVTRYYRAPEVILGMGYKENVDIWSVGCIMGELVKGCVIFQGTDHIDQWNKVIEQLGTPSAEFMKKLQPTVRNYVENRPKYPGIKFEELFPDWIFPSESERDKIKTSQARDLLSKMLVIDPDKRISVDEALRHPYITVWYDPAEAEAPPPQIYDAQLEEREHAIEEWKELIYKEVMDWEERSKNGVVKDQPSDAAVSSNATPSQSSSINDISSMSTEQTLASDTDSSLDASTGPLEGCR
Protocol: as §1

MLK3 = target: T4, MLK3 (Homo sapiens, UniProt Q16584)
T4 construct: lines 1-140) and Reaction Biology
T4 sequence (Q16584 whole entry): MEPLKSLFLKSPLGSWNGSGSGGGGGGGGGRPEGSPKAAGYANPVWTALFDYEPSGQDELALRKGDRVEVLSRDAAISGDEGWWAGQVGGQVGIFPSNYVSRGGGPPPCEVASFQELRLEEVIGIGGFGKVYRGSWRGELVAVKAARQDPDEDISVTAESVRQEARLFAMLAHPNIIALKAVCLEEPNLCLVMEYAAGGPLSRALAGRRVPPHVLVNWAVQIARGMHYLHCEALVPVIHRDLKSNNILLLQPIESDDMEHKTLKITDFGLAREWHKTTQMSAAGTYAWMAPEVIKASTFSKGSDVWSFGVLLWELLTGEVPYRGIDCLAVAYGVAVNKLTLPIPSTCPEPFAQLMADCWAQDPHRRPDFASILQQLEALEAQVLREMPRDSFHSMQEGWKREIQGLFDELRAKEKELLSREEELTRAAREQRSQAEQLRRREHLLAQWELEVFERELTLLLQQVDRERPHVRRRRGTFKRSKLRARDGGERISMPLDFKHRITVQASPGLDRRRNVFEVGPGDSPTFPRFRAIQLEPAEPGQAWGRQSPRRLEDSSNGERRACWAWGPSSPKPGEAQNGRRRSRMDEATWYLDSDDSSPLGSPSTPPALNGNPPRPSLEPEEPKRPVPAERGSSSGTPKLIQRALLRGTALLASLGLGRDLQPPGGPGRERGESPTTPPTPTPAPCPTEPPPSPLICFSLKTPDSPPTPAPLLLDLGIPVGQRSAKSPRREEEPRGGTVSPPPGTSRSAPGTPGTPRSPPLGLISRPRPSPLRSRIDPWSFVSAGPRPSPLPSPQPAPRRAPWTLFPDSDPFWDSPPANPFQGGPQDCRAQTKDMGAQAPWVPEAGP
Protocol: as §1

TIE2 = target: T5, TIE2 (Homo sapiens, UniProt Q02763)
T5 construct: lines 1-140) and Reaction Biology
Protocol: as §1

PKA = target: T6, PKA (Homo sapiens, UniProt P17612)
T6 construct: lines 1-140) and Reaction Biology
Protocol: as §1

MELK = target: T7, MELK (Homo sapiens, UniProt Q14680)
T7 construct: lines 1-140) and Reaction Biology
T7 sequence (Q14680 whole entry): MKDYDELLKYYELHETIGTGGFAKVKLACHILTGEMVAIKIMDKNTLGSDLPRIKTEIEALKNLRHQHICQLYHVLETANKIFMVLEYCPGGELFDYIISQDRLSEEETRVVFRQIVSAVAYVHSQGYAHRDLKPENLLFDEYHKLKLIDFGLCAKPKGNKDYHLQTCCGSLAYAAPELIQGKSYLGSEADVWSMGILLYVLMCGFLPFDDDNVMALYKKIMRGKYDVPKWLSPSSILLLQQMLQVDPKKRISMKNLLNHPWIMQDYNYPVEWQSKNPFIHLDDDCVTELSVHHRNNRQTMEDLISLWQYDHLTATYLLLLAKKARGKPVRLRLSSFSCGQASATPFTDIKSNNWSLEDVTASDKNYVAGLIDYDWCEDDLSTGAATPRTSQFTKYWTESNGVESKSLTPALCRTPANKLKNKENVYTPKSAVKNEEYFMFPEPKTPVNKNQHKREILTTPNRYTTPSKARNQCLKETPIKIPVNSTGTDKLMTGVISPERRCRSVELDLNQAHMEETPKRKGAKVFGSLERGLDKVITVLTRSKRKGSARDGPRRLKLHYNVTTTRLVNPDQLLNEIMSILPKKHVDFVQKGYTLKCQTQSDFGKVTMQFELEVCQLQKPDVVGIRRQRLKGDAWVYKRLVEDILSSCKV
Protocol: as §1

JNK3 = target: T8, JNK3 (Homo sapiens, UniProt P53779)
T8 construct: lines 1-140) and Reaction Biology
T8 sequence (P53779 whole entry): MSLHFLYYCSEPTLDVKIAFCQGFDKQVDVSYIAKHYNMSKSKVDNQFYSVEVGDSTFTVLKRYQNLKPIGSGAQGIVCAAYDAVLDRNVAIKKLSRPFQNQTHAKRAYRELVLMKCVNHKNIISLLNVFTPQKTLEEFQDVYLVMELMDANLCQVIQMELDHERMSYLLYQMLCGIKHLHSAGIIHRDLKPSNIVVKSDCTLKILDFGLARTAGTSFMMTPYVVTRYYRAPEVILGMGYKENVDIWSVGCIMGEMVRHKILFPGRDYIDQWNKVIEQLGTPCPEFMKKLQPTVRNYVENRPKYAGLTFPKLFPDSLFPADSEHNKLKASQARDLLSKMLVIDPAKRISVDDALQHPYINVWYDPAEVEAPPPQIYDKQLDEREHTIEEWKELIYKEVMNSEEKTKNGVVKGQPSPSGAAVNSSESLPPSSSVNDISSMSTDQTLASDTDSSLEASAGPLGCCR
Protocol: as §1

BTK = target: T9, BTK (Homo sapiens, UniProt Q06187)
T9 construct: lines 1-140) and Reaction Biology
T9 sequence (Q06187 whole entry): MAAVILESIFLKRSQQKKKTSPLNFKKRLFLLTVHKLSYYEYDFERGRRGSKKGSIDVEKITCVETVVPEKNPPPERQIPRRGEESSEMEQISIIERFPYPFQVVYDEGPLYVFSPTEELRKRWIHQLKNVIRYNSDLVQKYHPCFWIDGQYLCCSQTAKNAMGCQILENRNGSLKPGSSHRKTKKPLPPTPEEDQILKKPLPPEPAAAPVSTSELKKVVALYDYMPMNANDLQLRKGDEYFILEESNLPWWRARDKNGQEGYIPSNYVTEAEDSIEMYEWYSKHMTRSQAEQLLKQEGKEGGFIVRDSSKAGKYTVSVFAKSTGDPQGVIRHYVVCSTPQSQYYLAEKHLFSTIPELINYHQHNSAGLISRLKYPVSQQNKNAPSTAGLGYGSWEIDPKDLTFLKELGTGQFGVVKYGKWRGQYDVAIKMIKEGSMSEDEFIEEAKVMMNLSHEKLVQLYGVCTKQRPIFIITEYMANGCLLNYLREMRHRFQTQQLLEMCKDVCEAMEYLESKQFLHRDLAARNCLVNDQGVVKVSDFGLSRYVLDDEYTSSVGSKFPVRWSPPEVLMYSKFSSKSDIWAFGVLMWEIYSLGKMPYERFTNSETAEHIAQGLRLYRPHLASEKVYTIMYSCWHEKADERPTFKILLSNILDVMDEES
Protocol: as §1

CHK1 = target: T10, CHK1 (Homo sapiens, UniProt O14757)
T10 construct: lines 1-140) and Reaction Biology
T10 sequence (O14757 1-476): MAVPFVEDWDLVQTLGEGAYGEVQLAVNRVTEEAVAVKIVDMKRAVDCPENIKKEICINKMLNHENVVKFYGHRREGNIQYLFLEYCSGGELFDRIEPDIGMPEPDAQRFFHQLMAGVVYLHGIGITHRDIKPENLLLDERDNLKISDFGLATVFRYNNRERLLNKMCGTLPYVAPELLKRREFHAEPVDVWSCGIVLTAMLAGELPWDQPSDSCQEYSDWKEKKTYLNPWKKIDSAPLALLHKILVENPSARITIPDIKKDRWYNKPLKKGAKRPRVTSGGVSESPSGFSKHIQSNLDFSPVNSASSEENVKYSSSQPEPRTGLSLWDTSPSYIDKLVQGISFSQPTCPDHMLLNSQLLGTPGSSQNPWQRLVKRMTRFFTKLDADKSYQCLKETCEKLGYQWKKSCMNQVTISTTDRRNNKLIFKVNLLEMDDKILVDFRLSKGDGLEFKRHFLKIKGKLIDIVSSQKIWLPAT
Protocol: as §1

EPH-B2 = target: T11, EPH-B2 (Homo sapiens, UniProt P29323)
T11 construct: lines 1-140) and Reaction Biology
T11 sequence (P29323 19-1055): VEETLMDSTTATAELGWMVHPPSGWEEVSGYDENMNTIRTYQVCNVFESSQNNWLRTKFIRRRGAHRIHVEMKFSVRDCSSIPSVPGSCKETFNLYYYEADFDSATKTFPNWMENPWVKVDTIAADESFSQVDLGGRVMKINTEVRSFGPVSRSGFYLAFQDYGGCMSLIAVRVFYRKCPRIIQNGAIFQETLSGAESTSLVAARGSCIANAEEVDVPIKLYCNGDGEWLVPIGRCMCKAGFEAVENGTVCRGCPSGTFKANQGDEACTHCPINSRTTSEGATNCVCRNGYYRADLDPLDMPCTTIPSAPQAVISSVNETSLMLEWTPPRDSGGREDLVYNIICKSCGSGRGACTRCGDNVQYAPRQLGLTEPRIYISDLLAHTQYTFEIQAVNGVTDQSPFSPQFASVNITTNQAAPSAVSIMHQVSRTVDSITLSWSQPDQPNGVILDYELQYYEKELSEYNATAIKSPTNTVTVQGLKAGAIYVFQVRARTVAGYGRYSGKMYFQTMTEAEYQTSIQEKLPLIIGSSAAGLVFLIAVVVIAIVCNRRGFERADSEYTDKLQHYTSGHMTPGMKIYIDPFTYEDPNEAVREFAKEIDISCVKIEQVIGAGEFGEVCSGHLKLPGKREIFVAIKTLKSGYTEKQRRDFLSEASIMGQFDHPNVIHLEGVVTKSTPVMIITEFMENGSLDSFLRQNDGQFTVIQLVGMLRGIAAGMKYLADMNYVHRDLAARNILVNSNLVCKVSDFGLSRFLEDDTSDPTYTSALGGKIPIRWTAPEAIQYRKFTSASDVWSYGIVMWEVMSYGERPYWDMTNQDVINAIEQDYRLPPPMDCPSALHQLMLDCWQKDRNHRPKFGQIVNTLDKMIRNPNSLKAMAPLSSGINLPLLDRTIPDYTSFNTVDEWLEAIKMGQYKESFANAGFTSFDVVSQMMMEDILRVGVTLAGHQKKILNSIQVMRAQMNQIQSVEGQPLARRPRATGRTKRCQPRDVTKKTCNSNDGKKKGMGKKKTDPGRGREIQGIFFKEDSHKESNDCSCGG
Protocol: as §1

TAK1 = target: T12, TAK1 (Homo sapiens, UniProt O43318)
T12 construct: lines 1-140) and Reaction Biology
T12 sequence (O43318 1-303 limits assumed): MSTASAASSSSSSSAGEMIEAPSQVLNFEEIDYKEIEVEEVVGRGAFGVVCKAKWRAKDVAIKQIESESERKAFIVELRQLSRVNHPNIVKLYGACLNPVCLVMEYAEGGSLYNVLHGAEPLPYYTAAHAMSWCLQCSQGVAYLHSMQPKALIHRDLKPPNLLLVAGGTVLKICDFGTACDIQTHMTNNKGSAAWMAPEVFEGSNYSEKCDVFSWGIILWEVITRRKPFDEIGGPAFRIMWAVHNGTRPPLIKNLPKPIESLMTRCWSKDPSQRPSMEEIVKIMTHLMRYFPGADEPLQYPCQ
Protocol: as §1

TRKA = target: T13, TRKA (Homo sapiens, UniProt P04629)
T13 construct: lines 1-140) and Reaction Biology
Protocol: as §1

SMILES | remaining activity at 1 µM (PKCa) [%] | remaining activity at 1 µM (TTBK2) [%] | remaining activity at 1 µM (JNK2) [%] | remaining activity at 1 µM (MLK3) [%] | remaining activity at 1 µM (TIE2) [%] | remaining activity at 1 µM (PKA) [%] | remaining activity at 1 µM (MELK) [%] | remaining activity at 1 µM (JNK3) [%] | remaining activity at 1 µM (BTK) [%] | remaining activity at 1 µM (CHK1) [%] | remaining activity at 1 µM (EPH-B2) [%] | remaining activity at 1 µM (TAK1) [%] | remaining activity at 1 µM (TRKA) [%] | further results
O=C1Cc2c([nH]c3ccc(Br)cc23)-c2ccccc2N1 [Kenpaullone] | 94 | 95 | 94 | 21 | 98 | 105 | 38 | 87 | 64 | 68 | 99 | 113 |  | 
COCCOc1ccc(-c2cn(-c3ccccc3)c3nc[nH]c(=O)c23)cc1 [DMX-5804, 5-[4-(2-methoxy-ethoxy)-phenyl]-7-phenyl-3,7-dihydro-pyrrolo[2,3-d]pyrimidin-4-one] | 116 | 108 | 103 | 12 | 101 | 109 | 83 | 127 | 118 | 86 | 102 | 61 | 74 | 
O=C1Nc2ccc(I)cc2/C1=C/c1cc(Br)c(O)c(Br)c1 [GW5074] | 85 | 83 | 80 | 17 | 98 | 83 | 48 | 65 | 75 | 33 | 94 | 92 | 51 | 
Nc1ncc(C(=O)NC2CN(C(=O)C3CC3)C2)c2ccc(-c3cccc(F)c3)nc12 [GNE-495] |  |  |  |  |  |  |  |  |  |  |  |  |  | residual activity (PKCa; 1 μM): 50%; residual activity (TTBK2; 1 μM): 116%; residual activity (JNK2; 1 μM): 100%; residual activity (MLK3; 1 μM): 38%; residual activity (TIE2; 1 μM): 86%; residual activity (PKA; 1 μM): 95%; residual activity (MELK; 1 μM): 82%; residual activity (JNK3; 1 μM): 73%; residual activity (BTK; 1 μM): 82%; residual activity (CHK1; 1 μM): 93%; residual activity (TRKA; 1 μM): 68%; residual activity (EPH-B2; 1 μM): 102%; residual activity (TAK1; 1 μM): 31%
Oc1ncnc2c1c(-c1ccccc1)cn2-c1ccccc1 [F1386-0303, 5,7-diphenyl-7H-pyrrolo[2,3-d]pyrimidin-4-ol] | 70 | 99 | 94 | 30 | 114 | 103 | 90 | 92 | 130 | 98 | 78 | 102 | 89 | 
